US10561749B2, “Nuclear medicine diagnostic imaging agent” (Kyoto University, priority 2015, dated 2020)

Legend:
Type in all cases: biochemical
EGFR (T790M) = biological target: T1, EGFR (T790M) (Homo sapiens, UniProt P00533, T790M); assay: EGFR tyrosine kinase inhibiting activity, ADP-Glo (EGFR (T790M) Kinase Enzyme System); conditions: for IC50: read-out: EGFR Kinase inhibition: IC50 T790M; for EGFR Kinase inhibition: IC50 T790M: ATP 10 μM, max concentration 20 μM, >10: <50% inhibition at 10 μM, no active: almost no activity at 20 μM
T1 construct: purchased Promega V4506
T1 sequence (P00533 25-1210 T790M): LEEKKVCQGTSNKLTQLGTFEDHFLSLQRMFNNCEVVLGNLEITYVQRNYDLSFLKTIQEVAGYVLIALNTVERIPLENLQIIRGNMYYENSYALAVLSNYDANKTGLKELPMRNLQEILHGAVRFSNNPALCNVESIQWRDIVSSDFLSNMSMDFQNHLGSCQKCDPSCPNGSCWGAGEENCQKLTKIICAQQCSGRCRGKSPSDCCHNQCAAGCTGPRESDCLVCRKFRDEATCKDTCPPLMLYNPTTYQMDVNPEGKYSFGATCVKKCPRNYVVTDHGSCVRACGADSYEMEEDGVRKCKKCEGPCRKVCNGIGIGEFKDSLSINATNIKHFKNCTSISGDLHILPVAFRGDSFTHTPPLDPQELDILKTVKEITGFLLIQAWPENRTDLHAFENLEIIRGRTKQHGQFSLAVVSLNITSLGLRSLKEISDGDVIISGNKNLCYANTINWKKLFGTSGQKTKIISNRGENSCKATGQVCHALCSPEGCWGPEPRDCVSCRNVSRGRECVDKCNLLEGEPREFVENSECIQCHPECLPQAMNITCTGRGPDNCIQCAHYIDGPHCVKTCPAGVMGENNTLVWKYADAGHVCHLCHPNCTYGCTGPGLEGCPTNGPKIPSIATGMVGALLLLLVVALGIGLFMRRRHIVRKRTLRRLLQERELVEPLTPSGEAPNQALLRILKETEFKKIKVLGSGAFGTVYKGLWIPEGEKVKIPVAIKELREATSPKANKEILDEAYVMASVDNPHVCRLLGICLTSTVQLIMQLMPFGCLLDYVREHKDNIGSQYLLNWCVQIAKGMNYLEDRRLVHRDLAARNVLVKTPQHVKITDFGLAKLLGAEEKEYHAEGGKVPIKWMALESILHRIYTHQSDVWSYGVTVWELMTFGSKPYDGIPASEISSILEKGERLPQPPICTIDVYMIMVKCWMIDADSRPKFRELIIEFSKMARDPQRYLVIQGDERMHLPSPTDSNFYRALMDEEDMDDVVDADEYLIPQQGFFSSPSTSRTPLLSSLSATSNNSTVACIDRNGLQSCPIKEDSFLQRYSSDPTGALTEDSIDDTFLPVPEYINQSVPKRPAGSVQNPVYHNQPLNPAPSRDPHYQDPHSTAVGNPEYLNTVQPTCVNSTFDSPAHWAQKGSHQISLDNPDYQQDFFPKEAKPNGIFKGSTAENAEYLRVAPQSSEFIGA
Method: (§1) Four types of EGFR Kinase Enzyme Systems, specifically, EGFR Kinase Enzyme System (Catalog No. V3831), EGFR (L858R) Kinase Enzyme System (Catalog No. V5322), EGFR (T790M) Kinase Enzyme System (Catalog No. V4506), and EGFR (T790M, L858R) Kinase Enzyme System (Catalog No. V5324) were used (all of them were manufactured by Promega).
(§2) The measurement was carried out according to the Promega protocol applications guide. That is, a buffer solution (40 mM Tris-HCl, pH 7.5, 20 mM MgCl2, 50 μM DTT and 0.1 mg/mL BSA) was used as a dilute solution. The concentration of each compound started at 20 μM (the final concentration, including 1% DMSO) with 5-fold dilutions with the buffer solution. Thus, ten concentrations of each compound were prepared. Then, 2 μL of each concentration of each compound thus obtained was added to each well of a 384-well plate. Furthermore, 4 μL (20 ng) of an EGFR Kinase […] that came with each EGFR Kinase Enzyme System was added to each well, which then was incubated at room temperature for ten minutes. Subsequently, 4 μL of mixed solution of ATP (10 μM) and Poly(Glu, Tyr) (2 μg) substrate was added to each well, which then was incubated at room temperature for one hour. Then, 10 μL of ADP-Glo™ Reagent (ADP-Glo™ Kinase Assay, Promega) was added to each well, which then was reacted at room temperature for 40 minutes. Furthermore, 20 μL of Kinase Detection Reagent (ADP-Glo™ Kinase Assay, Promega) was added to each well, which then was reacted at room temperature for one hour. […] From the data thus obtained, dose-response curves and IC50 were calculated using GraphPad Prism 5 (GraphPad Software, Inc.). In Table 1 below, WT indicates the measurement results obtained with the EGFR Kinase Enzyme System, L858R indicates the measurement results obtained with the EGFR (L858R) Kinase Enzyme System, T790M indicates the measurement results obtained with the EGFR (T790M) Kinase Enzyme System, and DM indicates the measurement results obtained with the EGFR (T790M, L858R) Kinase Enzyme System.

[1] = biological target: T2, EGFR tyrosine kinase (WT) (Homo sapiens, UniProt P00533); assay: EGFR tyrosine kinase inhibiting activity, ADP-Glo (EGFR Kinase Enzyme System, WT); conditions: read-out: EGFR Kinase inhibition: IC50 WT
T2 construct: purchased Promega V3831
T2 sequence (P00533 25-1210): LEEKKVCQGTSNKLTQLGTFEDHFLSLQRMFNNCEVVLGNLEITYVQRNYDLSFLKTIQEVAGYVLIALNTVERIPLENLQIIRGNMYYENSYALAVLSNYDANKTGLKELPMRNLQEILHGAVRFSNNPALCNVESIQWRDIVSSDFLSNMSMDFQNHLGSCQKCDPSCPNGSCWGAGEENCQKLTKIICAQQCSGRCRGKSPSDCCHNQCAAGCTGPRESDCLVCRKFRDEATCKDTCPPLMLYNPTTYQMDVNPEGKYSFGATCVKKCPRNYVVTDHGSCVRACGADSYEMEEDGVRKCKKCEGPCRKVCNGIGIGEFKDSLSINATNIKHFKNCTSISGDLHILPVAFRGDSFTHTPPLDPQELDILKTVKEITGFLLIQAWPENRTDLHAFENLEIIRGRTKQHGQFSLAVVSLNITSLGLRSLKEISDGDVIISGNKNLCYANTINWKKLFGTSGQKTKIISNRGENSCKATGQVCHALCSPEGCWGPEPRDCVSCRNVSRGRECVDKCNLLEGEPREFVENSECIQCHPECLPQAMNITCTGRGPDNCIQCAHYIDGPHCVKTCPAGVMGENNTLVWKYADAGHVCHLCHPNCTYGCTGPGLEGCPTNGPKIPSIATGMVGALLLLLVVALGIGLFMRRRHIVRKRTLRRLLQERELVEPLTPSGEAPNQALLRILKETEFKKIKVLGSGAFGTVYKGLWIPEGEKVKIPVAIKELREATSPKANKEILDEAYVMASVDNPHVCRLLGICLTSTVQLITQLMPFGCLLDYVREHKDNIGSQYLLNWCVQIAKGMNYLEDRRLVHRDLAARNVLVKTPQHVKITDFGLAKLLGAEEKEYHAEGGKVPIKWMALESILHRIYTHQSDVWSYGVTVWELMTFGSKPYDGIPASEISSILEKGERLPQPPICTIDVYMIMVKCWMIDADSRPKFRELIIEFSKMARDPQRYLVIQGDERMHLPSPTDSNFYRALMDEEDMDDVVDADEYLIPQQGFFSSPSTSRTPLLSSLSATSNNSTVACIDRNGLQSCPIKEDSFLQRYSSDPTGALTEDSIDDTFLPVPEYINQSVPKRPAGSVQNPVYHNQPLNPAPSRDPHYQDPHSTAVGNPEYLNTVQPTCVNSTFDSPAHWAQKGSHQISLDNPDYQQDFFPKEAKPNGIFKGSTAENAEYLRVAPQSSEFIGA
Method: as §1, §2

EGFR (T790M, L858R) = biological target: T3, EGFR (T790M, L858R) (Homo sapiens, UniProt P00533, L858R/T790M); assay: EGFR tyrosine kinase inhibiting activity, ADP-Glo (EGFR (T790M, L858R) Kinase Enzyme System, DM); conditions: for IC50: read-out: EGFR Kinase inhibition: IC50 DM; for EGFR Kinase inhibition: IC50 DM: ATP 10 μM, max concentration 20 μM, >10: <50% inhibition at 10 μM, no active: almost no activity at 20 μM
T3 construct: purchased Promega V5324
T3 sequence (P00533 25-1210 T790M/L858R): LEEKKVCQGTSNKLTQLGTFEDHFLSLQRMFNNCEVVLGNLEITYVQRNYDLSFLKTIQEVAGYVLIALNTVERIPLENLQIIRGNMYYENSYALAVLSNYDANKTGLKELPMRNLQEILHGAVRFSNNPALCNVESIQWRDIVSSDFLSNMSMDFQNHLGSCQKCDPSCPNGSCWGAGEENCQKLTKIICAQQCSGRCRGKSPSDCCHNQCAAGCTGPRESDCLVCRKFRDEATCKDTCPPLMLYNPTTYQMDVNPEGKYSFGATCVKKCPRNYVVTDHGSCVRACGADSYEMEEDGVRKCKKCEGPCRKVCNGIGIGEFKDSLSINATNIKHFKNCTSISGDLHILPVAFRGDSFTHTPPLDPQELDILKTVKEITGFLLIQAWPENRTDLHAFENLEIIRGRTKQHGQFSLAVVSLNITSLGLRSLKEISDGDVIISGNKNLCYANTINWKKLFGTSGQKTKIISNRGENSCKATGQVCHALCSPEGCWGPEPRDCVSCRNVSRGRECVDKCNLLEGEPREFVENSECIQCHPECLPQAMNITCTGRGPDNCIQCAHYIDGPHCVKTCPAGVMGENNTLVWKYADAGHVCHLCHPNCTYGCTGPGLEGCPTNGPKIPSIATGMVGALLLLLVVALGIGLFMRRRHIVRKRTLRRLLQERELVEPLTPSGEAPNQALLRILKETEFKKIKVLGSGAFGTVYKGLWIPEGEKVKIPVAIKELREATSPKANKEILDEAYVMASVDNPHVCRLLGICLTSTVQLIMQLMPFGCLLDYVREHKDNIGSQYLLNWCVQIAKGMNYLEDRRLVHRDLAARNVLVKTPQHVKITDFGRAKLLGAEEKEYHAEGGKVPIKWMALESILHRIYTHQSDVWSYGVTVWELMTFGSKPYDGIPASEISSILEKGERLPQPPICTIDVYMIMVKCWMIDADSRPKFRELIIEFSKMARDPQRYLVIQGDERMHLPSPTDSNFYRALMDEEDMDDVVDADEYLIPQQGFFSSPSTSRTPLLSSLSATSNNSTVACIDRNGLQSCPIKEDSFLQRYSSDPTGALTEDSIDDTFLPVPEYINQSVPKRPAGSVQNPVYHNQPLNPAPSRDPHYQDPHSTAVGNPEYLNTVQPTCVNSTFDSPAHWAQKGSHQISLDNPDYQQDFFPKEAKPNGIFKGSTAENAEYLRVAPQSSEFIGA
Method: as §1, §2

EGFR (L858R) = biological target: T4, EGFR (L858R) (Homo sapiens, UniProt P00533, L858R); assay: EGFR tyrosine kinase inhibiting activity, ADP-Glo (EGFR (L858R) Kinase Enzyme System); conditions: read-out: EGFR Kinase inhibition: IC50 L858R
T4 construct: purchased Promega V5322
T4 sequence (P00533 25-1210 L858R): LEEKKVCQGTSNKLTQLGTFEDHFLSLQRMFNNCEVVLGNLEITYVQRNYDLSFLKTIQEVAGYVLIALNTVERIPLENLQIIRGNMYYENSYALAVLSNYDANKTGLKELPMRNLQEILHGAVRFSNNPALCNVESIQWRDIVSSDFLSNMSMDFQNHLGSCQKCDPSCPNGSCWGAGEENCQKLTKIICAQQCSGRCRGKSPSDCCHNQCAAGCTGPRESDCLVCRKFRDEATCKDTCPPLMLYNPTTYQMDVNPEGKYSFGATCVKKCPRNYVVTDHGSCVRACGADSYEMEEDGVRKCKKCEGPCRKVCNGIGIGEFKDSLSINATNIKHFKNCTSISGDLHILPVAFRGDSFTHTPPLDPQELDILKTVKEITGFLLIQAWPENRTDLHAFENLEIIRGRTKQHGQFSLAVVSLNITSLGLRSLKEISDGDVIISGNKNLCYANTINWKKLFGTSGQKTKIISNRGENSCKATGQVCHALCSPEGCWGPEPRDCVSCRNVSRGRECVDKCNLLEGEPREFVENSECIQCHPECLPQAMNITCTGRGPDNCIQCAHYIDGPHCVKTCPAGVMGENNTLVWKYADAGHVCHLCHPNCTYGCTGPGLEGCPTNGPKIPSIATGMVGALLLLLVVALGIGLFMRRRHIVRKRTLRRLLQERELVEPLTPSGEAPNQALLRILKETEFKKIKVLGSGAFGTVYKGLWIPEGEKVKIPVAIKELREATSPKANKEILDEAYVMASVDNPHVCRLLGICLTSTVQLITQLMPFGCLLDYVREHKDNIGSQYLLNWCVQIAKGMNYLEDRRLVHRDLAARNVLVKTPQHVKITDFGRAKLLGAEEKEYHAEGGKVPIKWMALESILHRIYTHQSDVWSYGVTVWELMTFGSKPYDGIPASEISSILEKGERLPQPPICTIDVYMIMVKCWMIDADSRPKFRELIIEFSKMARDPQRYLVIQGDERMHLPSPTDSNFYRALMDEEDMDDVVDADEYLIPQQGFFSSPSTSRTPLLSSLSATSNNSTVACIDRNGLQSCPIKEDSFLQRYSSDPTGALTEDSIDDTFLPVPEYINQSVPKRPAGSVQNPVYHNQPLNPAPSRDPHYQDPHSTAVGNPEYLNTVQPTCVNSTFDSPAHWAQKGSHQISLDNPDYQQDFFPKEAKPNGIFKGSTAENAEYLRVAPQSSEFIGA
Method: as §1, §2

## O=C(/C=C/CN1CCN(CCOCCF)CC1)N1CCc2c(sc3ncnc(N[C@H](CO)c4ccccc4)c23)C1 [P9]
EGFR (T790M)
  IC50: > 10 µM
[1]
  IC50: 67 nM
EGFR (T790M, L858R)
  IC50: > 10 µM
EGFR (L858R)
  IC50: 31 nM

## O=C(/C=C/CN1CCN(CCF)CC1)N1CCc2c(sc3ncnc(O[C@@H](c4ccccc4)C(F)(F)F)c23)C1 [P6, (S,E)-4-(4-(2-Fluoroethyl)piperazin-1-yl)-1-(4-(2,2,2-trifluoro-1-phenylethoxy)-5,8-dihydropyrido[4′,3′:4,5]thieno[2,3-d]pyrimidin-7 (6H)-yl)but-2-en-1-one]
EGFR (T790M)
  EGFR Kinase inhibition: IC50 T790M: no active
[1]
  IC50: 896 nM
EGFR (T790M, L858R)
  IC50: > 10 µM
EGFR (L858R)
  IC50: 336 nM

## O=C(CN1CCN(CCF)CC1)N1CCc2c(sc3ncnc(N[C@H](CO)c4ccccc4)c23)C1 [P3, (S)-2-(4-(2-Fluoroethyl)piperazin-1-yl)-1-(4-((2-hydroxy-1phenylethyl)amino)-5,8-dihydropyrido[4′,3′:4,5]thieno[2,3-d]pyrimidin-7(6H)-yl)ethan-1-one]
EGFR (T790M)
  EGFR Kinase inhibition: IC50 T790M: no active
[1]
  IC50: 4370 nM
EGFR (T790M, L858R)
  EGFR Kinase inhibition: IC50 DM: no active
EGFR (L858R)
  IC50: 2670 nM

## O=C(/C=C/CN1CCN(CCF)CC1)N1CCc2c(sc3ncnc(N[C@H](CO)c4ccccc4)c23)C1 [P2, (S,E)-4-(4-(2-Fluoroethyl)piperazin-1-yl)-1-(4-((2-hydroxy-1phenylethyl)amino)-5,8-dihydropyrido[4′,3′:4,5]thieno[2,3-d]pyrimidin-7(6H)-yl)but-2-en-1-one]
EGFR (T790M)
  IC50: 8.97 µM
[1]
  IC50: 44 nM
EGFR (T790M, L858R)
  IC50: > 10 µM
EGFR (L858R)
  IC50: 9 nM

## O=C(/C=C/CN1CCN(CCOCCOCCOCCF)CC1)N1CCc2c(sc3ncnc(N[C@H](CO)c4ccccc4)c23)C1 [P10]
EGFR (T790M)
  IC50: > 10 µM
[1]
  IC50: 90 nM
EGFR (T790M, L858R)
  IC50: > 10 µM
EGFR (L858R)
  IC50: 52 nM

## COC[C@@H](Nc1ncnc2sc3c(c12)CCN(C(=O)/C=C/CN1CCN(CCF)CC1)C3)c1ccccc1 [P7]
EGFR (T790M)
  EGFR Kinase inhibition: IC50 T790M: no active
[1]
  IC50: 374 nM
EGFR (T790M, L858R)
  EGFR Kinase inhibition: IC50 DM: no active
EGFR (L858R)
  IC50: 51 nM

## O=C(CCN1CCN(CCF)CC1)N1CCc2c(sc3ncnc(N[C@H](CO)c4ccccc4)c23)C1 [P4, (S)-3-(4-(2-Fluoroethyl)piperazin-1-yl)-1-(4-((2-hydroxy-1phenylethyl)amino)-5,8-dihydropyrido[4′,3′:4,5]thieno[2,3-d]pyrimidin-7(6H)-yl)propan-1-one]
EGFR (T790M)
  EGFR Kinase inhibition: IC50 T790M: no active
[1]
  IC50: 2830 nM
EGFR (T790M, L858R)
  EGFR Kinase inhibition: IC50 DM: no active
EGFR (L858R)
  IC50: 1830 nM

## C[C@@H](Nc1ncnc2sc3c(c12)CCN(C(=O)/C=C/CN1CCN(CCF)CC1)C3)c1ccccc1 [P5, (R,E)-4-(4-(2-Fluoroethyl)piperazin-1-yl)-1-(4-((1-phenylethyl)amino)-5,8-dihydropyrido[4′,3′:4,5]thieno[2,3-d]pyrimidin-7(6H)-yl)but-2-en-1-one]
EGFR (T790M)
  IC50: > 10 µM
[1]
  IC50: 130 nM
EGFR (T790M, L858R)
  IC50: > 10 µM
EGFR (L858R)
  IC50: 27 nM

## OC[C@@H](Nc1ncnc2sc3c(c12)CCN(CCF)C3)c1ccccc1 [P1]
EGFR (T790M)
  EGFR Kinase inhibition: IC50 T790M: no active
[1]
  IC50: 2310 nM
EGFR (T790M, L858R)
  EGFR Kinase inhibition: IC50 DM: no active
EGFR (L858R)
  IC50: 3410 nM

## O=C(/C=C/CN1CCN(CCF)CC1)N1CCc2c(sc3ncnc(Nc4cccc(Br)c4)c23)C1 [P8]
EGFR (T790M)
  EGFR Kinase inhibition: IC50 T790M: no active
[1]
  IC50: 4310 nM
EGFR (T790M, L858R)
  EGFR Kinase inhibition: IC50 DM: no active
EGFR (L858R)
  IC50: 1380 nM
